Data as given in publication PMC3434972 (Bioorganic & medicinal chemistry letters, 2011).
Where a chain is given by its changes, count along the chain named. Where two headings read alike, the source gives them in different places.

Key:
hM1 [1] = molecular target: T1, hM1 (Homo sapiens, UniProt P11229); experiment: hM1 antagonist calcium mobilization assay; format: cell-based; conditions: for hM1 antagonist activity in words: highest concentration tested 30 μM; for fold loss in potency/activity relative to ML012: hM1, versus ML012
T1 sequence (P11229 1-460): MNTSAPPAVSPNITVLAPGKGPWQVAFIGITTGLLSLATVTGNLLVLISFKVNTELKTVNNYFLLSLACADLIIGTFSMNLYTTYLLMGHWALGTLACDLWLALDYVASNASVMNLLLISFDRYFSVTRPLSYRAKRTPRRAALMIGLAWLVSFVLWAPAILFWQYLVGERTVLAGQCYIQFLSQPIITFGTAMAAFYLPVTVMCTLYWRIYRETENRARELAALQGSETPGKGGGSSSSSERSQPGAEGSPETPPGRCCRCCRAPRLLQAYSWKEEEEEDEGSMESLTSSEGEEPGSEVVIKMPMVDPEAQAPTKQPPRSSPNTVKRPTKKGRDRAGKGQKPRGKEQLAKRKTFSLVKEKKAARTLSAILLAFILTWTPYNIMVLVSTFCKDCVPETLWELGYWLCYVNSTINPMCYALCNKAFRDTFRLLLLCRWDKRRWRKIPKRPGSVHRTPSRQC

rat M1–5 receptors = experiment: selectivity across the rat mAChRs, calcium mobilization assay; format: cell-based; conditions: Figure 4
[2] = tested on: pilocarpine-induced seizures; conditions: rodent models; cited from earlier work
hM1 [3] = molecular target: T1, hM1; conditions: read-out: IC50 for ML012 previously reported; cited from earlier work
contextual freezing = conditions: at doses that reduced seizures; cited from earlier work
rM1 = molecular target: T2, rM1 (Rattus norvegicus, UniProt P08482); experiment: rat M1 antagonist calcium mobilization assay; format: cell-based
T2 sequence (P08482 1-460): T1 sequence (P11229 1-460) with A5V, T254S, P309S, R320K, A337G, I413V

[4] = in vitro DMPK prediction of clearance; format: in vitro ADME
[5] = rat pharmacokinetics and CNS exposure; format: in vivo; conditions: dosed orally at 10 mg/kg

**Q.** Which “fold decrease in activity relative to sulfur analog 6j” value (hM1 [1]; hM1, versus 6j) does the source give for O=C(CCNS(=O)(=O)c1cccc2nonc12)N1CCN(c2ccc(Br)cn2)CC1 [Compound 13a] here?
**A.** Its value is 3 fold.

**Q.** With O=C(CCNS(=O)(=O)c1cccc2scnc12)N1CCN(c2ccncc2)CC1 [Compound 13j] as the compound, how does the “hM1 antagonist activity in words” value (hM1 [1]) read?
**A.** The value was “inactive”.

**Q.** With O=S(=O)(NCCCN1CCN(c2ccncc2)CC1)c1cccc2nsnc12 [Compound 7] as the compound, how does the “fold loss in potency/activity relative to ML012” value (hM1 [1]) read?
**A.** Its value is “greater than 14 fold”.

**Q.** What does the source list for O=C(CCNS(=O)(=O)c1cccc2nsnc12)N1CCN(c2ccncc2)CC1 [ML012]?
**A.** selectivity for the M1 receptor over the M2–5 subtypes (rat M1–5 receptors): selectively antagonize the M1 mAChR relative to the M2–5 mAChRs; effect on pilocarpine-induced seizures [2]: reduced pilocarpine-induced seizures; IC50 (hM1 [3]): 132 nM; deficits in contextual freezing (contextual freezing): did not induce deficits in contextual freezing; EC50 (rM1): 240 nM

**Q.** Which results are given for O=C(CCNS(=O)(=O)c1cccc2nonc12)N1CCN(c2ccncc2)CC1 [Compound 13b]?
**A.** IC50 (hM1 [1]): 4500 nM; fold loss in potency/activity relative to ML012 (hM1 [1]): 4 fold

**Q.** With O=C(CCNS(=O)(=O)c1cccc2ccccc12)N1CCN(c2ccc(Br)cn2)CC1 [Compound 13i] as the compound, how does the “hM1 antagonist activity in words” value (hM1 [1]) read?
**A.** Its value is “complete loss of activity”.

**Q.** Which “fold loss in potency/activity relative to ML012” value (hM1 [1]) does the source give for CN(CCC(=O)N1CCN(c2ccncc2)CC1)S(=O)(=O)c1cccc2nsnc12 [Compound 12] here?
**A.** Its value is “greater than 14 fold”.

**Q.** Which “fold loss in potency/activity relative to ML012” value (hM1 [1]) does the source give for O=C(CCNS(=O)(=O)c1cccc2nsnc12)N1CCN(c2ccccn2)CC1 [Compound 6d] here?
**A.** The value was “roughly 14 fold”.

**Q.** For O=C(CCNS(=O)(=O)c1cccc2ncccc12)N1CCN(c2ccncc2)CC1 [Compound 13l], which “selectivity for the M1 receptor over the M2–5 subtypes” value (rat M1–5 receptors) is on record?
**A.** Its value is “very high selectivity”.

**Q.** What about the “in vitro DMPK prediction of clearance” value [4] of the same compound?
**A.** The value was “high clearance”.

**Q.** What about the “CNS concentrations / CNS exposure” value [5] of the same compound?
**A.** Its value is “undetectable”.

**Q.** And the EC50 (rM1)?
**A.** Its EC50 is 180 nM.

**Q.** With C[C@H](CC(=O)N1CCN(c2ccncc2)CC1)NS(=O)(=O)c1cccc2nonc12 [Compound 10] as the compound, how does the “hM1 antagonist activity in words” value (hM1 [1]) read?
**A.** Its value is “completely inactive”.

**Q.** With O=C(C(F)CNS(=O)(=O)c1cccc2nonc12)N1CCN(c2ccncc2)CC1 (stereo not shown) [Compound 9] as the compound, how does the “fold decrease in potency relative to 13b” value (hM1 [1]; hM1, versus 13b) read?
**A.** Its value is “roughly 2 fold”.
